Test results: PubChem BioAssay (NCI)
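The compound was tested at five concentrations on cells cultured in 96-well plates, with a 48-hour exposure period. The concentration for 50% growth inhibition is given as GI50. Definition used: TGI = concentration required for complete inhibition of growth.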

Test system: MDA-MB-468 breast
Experiment: NCI anticancer screen, dose series, 48 h

In the case of `Cc1cc(Cl)ccc1NS(=O)(=O)c1ccc(-c2cnc(C3CC3)o2)cc1`, the GI50 was 86.1 nM and the TGI was 13.7 µM.

Molecule `C[C@@H](Nc1c(C#N)cnc2ccc(-c3cnc(N)nc3)cc12)c1ccccc1` has a GI50 of 722 nM and a TGI of 5.8 µM.

For `CC(=O)Oc1ccc(/C=N/NC(N)=S)nc1`, the GI50 was 2750 nM and the TGI was 15.3 µM.

Work on `COc1cc(NC(=O)Nc2cnc(Nc3ccc(N4CCOCC4)cc3)nc2Oc2cccc(OC)c2)cc(OC)c1` yielded a GI50 of 1740 nM and a TGI of 9.54 µM.

`CO[C@]1(CN2CCN3CCCC[C@@H]3C2)/C=C/C[C@H](C)[C@@H](C)S(=O)(=O)NC(=O)c2ccc3c(c2)N(C[C@@H]2CC[C@H]21)C[C@@]1(CCCc2cc(Cl)ccc21)CO3` was tested, and the GI50 was 166 nM and the TGI was 1.24 µM.

`COc1cc([N+](=O)[O-])c2ncccc2c1[N+](=O)[O-]` gave a GI50 of 1720 nM and a TGI of 3.67 µM.

In the case of `Oc1[nH]c2cc(Cl)ccc2c1/C=c1/ccc2c(c1)N=C(c1cc(F)cc(F)c1)N=2`, the GI50 was 2510 nM and the TGI was 5.98 µM.

`O=S(=O)(NCCCNc1nccc(-c2[nH]c(-c3ccccc3)nc2-c2ccc(F)c(O)c2)n1)c1ccc(C(F)(F)F)cc1` showed a GI50 of 2440 nM and a TGI of 7.7 µM.

Work on `CC/C=C\C/C=C\C[C@H](O)C/C=C1/C(=O)C=C[C@@H]1C/C=C\CCCC(=O)OC` yielded a GI50 of 1470 nM and a TGI of 3.16 µM.

`CO[C@@]12[C@@H]3NC3CN1C1=C(C(=O)C(N)=C(C)C1=O)[C@@H]2COC(N)=O` (stereo partly drawn) was tested, and the GI50 was 238 nM and the TGI was 1.28 µM.

In the case of `COc1cccc(/C=C/C(=O)c2cc3c(N)c(C(=O)Nc4cccc5ccccc45)sc3nc2C)c1`, the GI50 was 1070 nM and the TGI was 3 µM.

Work on `O=c1c2ccccc2oc2ccc(OCCCCCCN3CCCCCC3)cc12` yielded a GI50 of 1970 nM and a TGI of 5.87 µM.

In the case of `C=CC1CN2CCC1CC2C(O)c1ccnc2ccccc12` (stereo not drawn), the GI50 was over 100000 nM and the TGI was over 100 µM.

With `CC1(C)CC[C@]2(C(N)=O)CC[C@]3(C)C(=CC[C@@H]4[C@@]5(C)C/C(=C/c6ccncc6)C(=O)C(C)(C)[C@@H]5CC[C@]43C)[C@@H]2C1` the GI50 was 2330 nM and the TGI was 7.44 µM.

`CCC(CC(C)C)Nc1ccc(NC(CC)CC(C)C)cc1` (stereo not drawn) was tested, and the GI50 was 11700 nM and the TGI was 24 µM.

`Oc1ccc(Cl)cc1Cc1cc(Cl)ccc1O` showed a GI50 of 2190 nM and a TGI of 7.29 µM.

`O=C(NCCCCCCCNC(=O)OCc1ccc2c(Cl)cc(Cl)c(O)c2n1)OCc1ccc2c(Cl)cc(Cl)c(O)c2n1` gave a GI50 of 389 nM and a TGI of 1.2 µM.

With `COc1ccc(CCc2cc(OC)c(OC)c(OC)c2)cc1` the GI50 was 59.9 nM and the TGI was over 100 µM.

In the case of `CC1COCC(C)N1C1=C(Cl)C(=O)c2ccccc2C1=O` (stereo not drawn), the GI50 was 1590 nM and the TGI was 3.28 µM.
